{"source": "paper PMC3480348", "about": "“Structure and Activity Analysis of Inauhzin Analogs as Novel Antitumor Compounds That Induce p53 and Inhibit Cell Growth” (PLoS ONE, 2012)", "key": {"[1]": {"test_system": "p53 level in HCT116^+/+ cells", "assay": "p53 induction by immunoblotting (IB) in HCT116^+/+ cells", "format": "cell-based, human", "procedure": "(§1) EC90 values were calculated from the EC50 and Hill slope by a web-based calculator: http://www.graphpad.com/quickcalcs/Ecanything1.cfm."}, "p53 level in H460 cells": {"test_system": "p53 level in H460 cells", "assay": "p53 induction by immunoblotting (IB) in H460 cells", "format": "cell-based, human"}, "[2]": {"test_system": "p53 level in H460 and HCT116^+/+ cells", "assay": "p53 induction by immunoblotting (IB), statement does not separate the cell lines", "format": "cell-based, human", "conditions": "18 hrs, 0.5, 2, 10 µM", "excerpt": "(A–B) Initial Inauhzin analogs were purchased and tested the activity on H460 and HCT116^+/+ by immunoblotting (IB). […]"}, "HCT116^+/+ cells": {"test_system": "HCT116^+/+ cells", "assay": "3-day WST-8 cell growth inhibition assay, HCT116^+/+", "format": "cell-based, human", "conditions": "for EC90 / EC50: Homo sapiens; for EC90: HCT-116, calculated from EC50 and Hill slope, read-out: EC90, cell growth inhibition, HCT116^+/+ p53 wild type; for EC50: HCT-116, 72 h WST-8, average of triplicates, highest concentration 50 µM, read-out: EC50, cell growth inhibition, HCT116^+/+ p53 wild type", "procedure": "as §1"}, "H460 cells [3]": {"test_system": "H460 cells", "assay": "3-day WST-8 cell growth inhibition assay, H460", "format": "cell-based, human", "conditions": "for EC50: Homo sapiens, NCI-H460, 72 h WST-8, average of triplicates, highest concentration 50 µM, read-out: EC50, cell growth inhibition, H460 p53 wild type"}, "H460 cells [4]": {"test_system": "H460 cells", "assay": "3-day WST-8 cell growth inhibition assay, H460", "format": "cell-based, human", "conditions": "Homo sapiens, NCI-H460, calculated from EC50 and Hill slope (GraphPad web calculator); read-out: EC90, cell growth inhibition, H460 p53 wild type", "procedure": "as §1"}, "HCT116^−/− cells [5]": {"test_system": "HCT116^−/− cells", "assay": "3-day WST-8 cell growth inhibition assay, HCT116^−/− (p53 null)", "format": "cell-based, human"}, "WI-38 cells": {"test_system": "WI-38 cells", "assay": "WST-8 cytotoxicity assay on normal fibroblasts WI-38", "format": "cell-based, human", "procedure": "as §1"}, "H1299 cells": {"test_system": "H1299 cells", "assay": "3-day WST-8 cell growth inhibition assay, H1299 (p53 null)", "format": "cell-based, human", "procedure": "as §1"}, "HCT116^−/− cells [6]": {"test_system": "HCT116^−/− cells", "assay": "3-day WST-8 cell growth inhibition assay, HCT116^−/− (p53 null)", "format": "cell-based", "conditions": "Homo sapiens, HCT-116, calculated from EC50 and Hill slope", "procedure": "as §1"}, "[7]": {"conditions": "2 µM, 18 hrs, IB normalized to GAPDH, compared to 2 µM INZ"}}, "note": "“And” between values parts separate entries of the source, which are not always exact repeats. Equal values may be shown once. “Also recorded” adds a separate entry of the source."}
{"smiles": "CCC(Sc1nnc2c(n1)[nH]c1ccccc12)C(=O)N1c2ccccc2Sc2ccc(Cl)cc21", "note": "(stereo not shown) [Compound 6, 2-((5H-[1,2,4]triazino[5,6-b]indol-3-yl)thio)-1-(2-chloro-10H-phenothiazin-10-yl)butan-1-one]", "values": [{"measurement": "p53 induction in HCT116^+/+ cells", "setting": "[1]; [7]", "value": "< 50", "unit": "%"}, {"measurement": "p53 induction in H460 cells", "setting": "p53 level in H460 cells; [7]", "value": "< 50", "unit": "%"}, {"measurement": "p53 induction / activation by synthetic analogs", "setting": "[2]", "value": "remained active in p53 induction"}]}
{"smiles": "CCC(Sc1nnc2c3ccccc3n(C(=O)CCCCC3CC4NC(=O)NC4S3)c2n1)C(=O)N1c2ccccc2Sc2ccccc21", "note": "(stereo not shown) [Compound 20, 5-(5-oxo-5-(3-((1-oxo-1-(10H-phenothiazin-10-yl)butan-2-yl)thio)-5H-[1,2,4]triazino[5,6-b]indol-5-yl)pentyl)tetrahydro-1H-thieno[2,3-d]imidazole-2(5H)-one]", "values": [{"measurement": "EC90", "setting": "HCT116^+/+ cells", "value": 18.3, "unit": "µM"}, {"measurement": "EC50", "setting": "HCT116^+/+ cells", "value": "2.5 ± 0.6", "unit": "µM"}, {"measurement": "p53 induction / activation in HCT116^+/+ cells", "setting": "[1]; IB, 18 hrs, 0.5, 2, 10 µM, p53 acetylation (lys382), p53 level, MDM2", "value": "as effective as INZ"}, {"measurement": "p53 induction / activation in H460 cells", "setting": "p53 level in H460 cells; IB, 18 hrs, 0.5, 2, 10 µM", "value": "as effective as INZ"}, {"measurement": "EC50", "setting": "H460 cells [3]", "value": "2.9 ± 0.2", "unit": "µM"}, {"measurement": "EC90", "setting": "H460 cells [4]", "value": 7.5, "unit": "µM"}]}
{"smiles": "CCC(Sc1nnc2c3ccccc3n(CCO)c2n1)C(=O)N1c2ccccc2Cc2ccccc21", "note": "(stereo not shown) [Compound 37, 1-(acridin-10(9H)-yl)-2-((5-(2-hydroxyethyl)-5H-[1,2,4]triazino[5,6-b]indol-3-yl)thio)butan-1-one]", "values": [{"measurement": "fold higher potency than INZ in growth inhibition of HCT116^+/+ cells", "setting": "HCT116^+/+ cells; EC50 compared with INZ", "value": "5 fold and 5- to 10 fold"}, {"measurement": "EC90", "setting": "HCT116^+/+ cells", "value": 5, "unit": "µM"}, {"measurement": "EC50", "setting": "HCT116^+/+ cells", "value": 0.5, "unit": "µM"}, {"measurement": "EC50", "setting": "HCT116^−/− cells [5]; Homo sapiens, HCT-116, 72 h WST-8, average of triplicates, highest concentration 100 µM", "value": "12.8 ± 1.7", "unit": "µM"}, {"measurement": "effect on p53-null HCT116^−/− cells compared with p53-containing cells", "setting": "HCT116^−/− cells [5]; in vitro cytotoxicity", "value": "much less effect; also recorded: much less effective"}, {"measurement": "fold higher potency than INZ in growth inhibition of H460 cells", "setting": "H460 cells [3]; EC50 compared with INZ", "value": "10 fold and 5- to 10 fold"}, {"measurement": "EC50", "setting": "H460 cells [3]", "value": 0.7, "unit": "µM"}, {"measurement": "EC90", "setting": "H460 cells [4]", "value": 3.6, "unit": "µM"}, {"measurement": "EC50", "setting": "WI-38 cells; Homo sapiens, WI-38, highest concentration tested 50 µM, n.d. = not be able to be determined, read-out: EC50, normal cells WI-38 p53 wild type", "value": "> 50", "unit": "µM"}, {"measurement": "toxicity to normal human WI-38 cells", "setting": "WI-38 cells; normal human fibroblasts, p53-containing", "value": "no toxicity"}, {"measurement": "EC90", "setting": "H1299 cells; Homo sapiens, NCI-H1299, calculated from EC50 and Hill slope", "value": 58.9, "unit": "µM"}, {"measurement": "EC50", "setting": "H1299 cells; Homo sapiens, NCI-H1299, 72 h WST-8, average of triplicates, highest concentration 100 µM", "value": 11.2, "unit": "µM"}, {"measurement": "effect on p53-null H1299 cells compared with p53-containing cells", "setting": "H1299 cells; in vitro cytotoxicity", "value": "much less effect; also recorded: much less effective"}, {"measurement": "EC50 on H1299 fold higher than on H460 cells", "setting": "H1299 cells; p53-null H1299 vs p53-containing H460", "value": "3–15 fold"}, {"measurement": "EC90", "setting": "HCT116^−/− cells [6]", "value": 91.7, "unit": "µM"}, {"measurement": "p53 induction / activation by synthetic analogs", "setting": "[2]", "value": "much better potency than INZ; also recorded: more potent in p53 activation than their parental compound INZ"}]}
